Test results taken from article PMC4858680, “A platinum-based hybrid drug design approach to circumvent acquired resistance to molecular targeted tyrosine kinase inhibitors” (Scientific Reports, 2016).
Read-outs that look alike come from different tables or passages of the source.

Experiments:
P-gp = P-gp (Homo sapiens, UniProt P08183); experiment: UIC2 shift assay; format: cell-based; parameters: endogenous in cells; host or cells: SW620 Ad300; conditions: P-gp overexpressing SW620 Ad300 cells; flow cytometry
P-gp, sequence (P08183 whole entry): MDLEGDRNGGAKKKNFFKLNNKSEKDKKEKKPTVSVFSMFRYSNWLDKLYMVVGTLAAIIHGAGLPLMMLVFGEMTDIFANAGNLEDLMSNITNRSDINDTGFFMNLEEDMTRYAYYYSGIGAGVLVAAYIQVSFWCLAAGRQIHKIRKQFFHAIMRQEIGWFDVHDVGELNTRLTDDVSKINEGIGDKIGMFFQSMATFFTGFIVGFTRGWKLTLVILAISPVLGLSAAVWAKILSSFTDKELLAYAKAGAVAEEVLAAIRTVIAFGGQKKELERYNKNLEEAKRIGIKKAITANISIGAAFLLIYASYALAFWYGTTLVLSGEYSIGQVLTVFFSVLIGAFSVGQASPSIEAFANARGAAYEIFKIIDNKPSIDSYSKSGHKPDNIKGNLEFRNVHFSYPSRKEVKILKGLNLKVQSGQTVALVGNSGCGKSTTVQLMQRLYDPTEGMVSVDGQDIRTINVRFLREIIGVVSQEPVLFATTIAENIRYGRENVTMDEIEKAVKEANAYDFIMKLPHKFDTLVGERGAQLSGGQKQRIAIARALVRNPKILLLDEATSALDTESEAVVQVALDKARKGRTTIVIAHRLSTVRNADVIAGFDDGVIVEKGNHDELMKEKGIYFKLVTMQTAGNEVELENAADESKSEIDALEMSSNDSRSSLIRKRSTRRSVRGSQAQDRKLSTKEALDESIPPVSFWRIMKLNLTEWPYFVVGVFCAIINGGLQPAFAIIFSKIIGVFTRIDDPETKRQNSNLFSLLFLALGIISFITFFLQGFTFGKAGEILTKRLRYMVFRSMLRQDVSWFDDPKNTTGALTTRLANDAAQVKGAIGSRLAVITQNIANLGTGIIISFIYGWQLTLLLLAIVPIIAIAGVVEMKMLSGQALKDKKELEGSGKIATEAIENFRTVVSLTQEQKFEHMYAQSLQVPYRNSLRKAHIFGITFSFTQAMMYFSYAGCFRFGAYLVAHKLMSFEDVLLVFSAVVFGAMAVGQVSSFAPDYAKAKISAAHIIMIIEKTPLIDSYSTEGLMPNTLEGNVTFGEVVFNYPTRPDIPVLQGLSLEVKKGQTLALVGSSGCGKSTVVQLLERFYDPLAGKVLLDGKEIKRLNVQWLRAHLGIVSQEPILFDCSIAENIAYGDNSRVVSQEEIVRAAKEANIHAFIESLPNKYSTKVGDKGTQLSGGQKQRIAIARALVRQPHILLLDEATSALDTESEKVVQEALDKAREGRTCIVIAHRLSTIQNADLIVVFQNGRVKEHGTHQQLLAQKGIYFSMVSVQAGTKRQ

HEK293 Bcr-Abl wild type = experiment: Anticancer activity in HEK293 stably transfected with wild type Bcr-Abl; format: cell-based
RPMI8226 = experiment: Anticancer activity (cytotoxicity) in Bcr-Abl negative cell line; format: cell-based
HEK293 Mock transfected = experiment: Anticancer activity in mock transfected HEK293; format: cell-based; conditions: Bcr-Abl negative
K562 = experiment: Anticancer activity (cytotoxicity) in CML cell line; format: cell-based
H1975 = experiment: Anticancer activity (cytotoxicity) in NSCLC cell line; format: cell-based; conditions: H1975 versus HCC827
K562 Ima1.0 = experiment: Anticancer activity in imatinib-selected resistant K562 subline; format: cell-based; conditions: for IC50: read-out: Anticancer activity (IC50) K562 Imatinib selected (K562 Ima1.0), Bcr-Abl amplification
HCC827 = experiment: Anticancer activity (cytotoxicity) in NSCLC cell line; format: cell-based; conditions: EGFR ΔE746-A750 (sensitizing)
HEK293 Bcr-Abl E255K = experiment: Anticancer activity in HEK293 stably transfected with Bcr-Abl E255K; format: cell-based; conditions: for IC50: stably transfected
H292 = experiment: Anticancer activity (cytotoxicity) in NSCLC cell line; format: cell-based; conditions: NSCLC; EGFR wild type; read-out: Anticancer activity (IC50) H292
[1] = Chemical stability of the hybrid compounds; conditions: for chemical stability in culture medium: Dulbecco’s Modified Eagle Medium supplemented with 5 mM glutathione
ABCG2 = biological target: T1, ABCG2 (Homo sapiens, UniProt Q9UNQ0, R482G); experiment: 5D3 shift assay; format: cell-based; conditions: ABCG2-overexpressing S1M1-80 cells; flow cytometry
T1 construct: endogenous in cells; host or cells: S1M1-80
T1 sequence (Q9UNQ0 whole entry R482G): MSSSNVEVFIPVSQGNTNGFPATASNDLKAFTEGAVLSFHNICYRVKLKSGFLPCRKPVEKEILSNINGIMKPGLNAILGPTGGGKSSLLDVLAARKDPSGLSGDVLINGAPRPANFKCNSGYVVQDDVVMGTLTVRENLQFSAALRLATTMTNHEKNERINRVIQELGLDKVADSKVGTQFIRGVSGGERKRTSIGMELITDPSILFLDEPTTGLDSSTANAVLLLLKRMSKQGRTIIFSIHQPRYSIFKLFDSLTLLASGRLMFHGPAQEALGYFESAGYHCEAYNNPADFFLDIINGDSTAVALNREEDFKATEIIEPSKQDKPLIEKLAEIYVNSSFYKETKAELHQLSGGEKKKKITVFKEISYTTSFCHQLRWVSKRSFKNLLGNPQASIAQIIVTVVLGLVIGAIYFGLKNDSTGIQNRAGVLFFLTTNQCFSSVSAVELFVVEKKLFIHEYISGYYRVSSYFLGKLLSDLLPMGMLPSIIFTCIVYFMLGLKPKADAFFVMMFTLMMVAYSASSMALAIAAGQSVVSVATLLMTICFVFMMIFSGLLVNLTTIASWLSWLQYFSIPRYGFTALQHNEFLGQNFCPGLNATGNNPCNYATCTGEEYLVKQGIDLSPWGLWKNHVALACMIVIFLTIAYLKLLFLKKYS

P-gp (MDCKII–P-gp) = P-gp (MDCKII–P-gp) (Homo sapiens, UniProt P08183); conditions: 10 μM, mean of three experiments
P-gp (MDCKII–P-gp), sequence (P08183 whole entry): as the sequence (P08183 whole entry) above

p38 = experiment: Western blot analysis of p38 phosphorylation; format: cell-based
[2] = CML cell line, Bcr-Abl positive, Table 1, read-out: Anticancer activity (IC50) K562
[3] = Table 2, read-out: Anticancer activity (IC50) K562 Sensitive parental

In the case of C=C[C@H]1C[N@@]2CC[C@H]1C[C@H]2[C@H](O)c1ccnc2ccc(OC)cc12 [quinine], the “UIC2 shift (interaction with P-gp)” value (P-gp) is reported as “concentration dependent antibody shift”.

O=C1[O][Pt]2([NH][C@@H]3CCCC[C@H]3[NH]2)[O]C1=O [Oxaliplatin] gave an IC50 (HEK293 Bcr-Abl wild type) of 3.15 ± 0.87 µM, an IC50 (RPMI8226) of 0.43 ± 0.04 µM and an IC50 (HEK293 Mock transfected) of 2.41 ± 0.32 µM. The IC50 (K562; [2]) was 16.6 ± 2.08 µM, the IC50 (K562; [3]) was 16.6 ± 2.08 µM and the “Fold resistance (IC50 in H1975/IC50 in HCC827)” value (H1975) was 1.4. For the same compound, the IC50 (K562 Ima1.0) was 16.4 ± 1.14 µM, the “Fold resistance K562 Ima1.0” value (K562 Ima1.0; versus sensitive parental K562) was 1.0 and the IC50 (HCC827) was 3.6 ± 1.76 µM. The IC50 (HEK293 Bcr-Abl E255K) was 2.65 ± 0.71 µM, the “Fold resistance HEK293 Bcr-Abl E255K” value (HEK293 Bcr-Abl E255K; versus HEK293 Bcr-Abl wild type) was 0.8 and the IC50 (H292) was 3.77 ± 0.35 µM.

COc1cc2c(Nc3ccc(Br)cc3F)[n+]([Pt@SP2-2]([NH2])([NH3+])[Cl])cnc2cc1OCC1CCN(C)CC1 [3a, cisplatin-vandetanib] showed an IC50 (H292) of 26.4 ± 3.19 µM.

In the case of Cc1ccc(NC(=O)c2ccc(CN3CCN(C)CC3)cc2)cc1Nc1nccc(-c2cccnc2)[n+]1[Pt@SP3-2]([NH3+])([NH3+])[Cl] [1c, transplatin-imatinib], the “activation of downstream ERK1/2 (Western blot)” value (ERK1/2 in K562 Ima1.0) is reported as “able to inhibit the activation”, the “DNA damage marker (phosphor-γ-H2Ax) (Western blot)” value (phosphor-γ-H2Ax) is reported as “concentration dependent upregulation” and the IC50 (HEK293 Mock transfected) is reported as 10.1 ± 1.39 µM. It also gave an IC50 (K562; [2]) of 1.04 ± 0.01 µM, an IC50 (K562; [3]) of 1.04 ± 0.01 µM and an IC50 (K562 Ima1.0) of 1.05 ± 0.14 µM. For the same compound, the “chemical stability in culture medium” value [1] was “undergo gradual degradation to release the original TKI”.

With O=c1c(O)c(-c2ccc(O)c(O)c2)oc2cc(O)cc(O)c12 [quercetin] the “5D3 shift (interaction with ABCG2)” value (ABCG2) was “concentration dependent antibody shift”.

For C#Cc1cccc(Nc2c3cc(OCCOC)c(OCCOC)cc3nc[n+]2[Pt@SP3-2]([NH3+])([NH3+])[Cl])c1 [2c, transplatin-erlotinib], the “A to B transport (apparent permeability)” value (P-gp (MDCKII–P-gp)) was 3.57 × 10^−6, the “B to A transport (apparent permeability)” value (P-gp (MDCKII–P-gp)) was 3.40 × 10^−6 and the “chemical stability in culture medium” value [1] was “undergo gradual degradation to release the original TKI”.

With C#Cc1cccc(Nc2c3cc(OCCOC)c(OCCOC)cc3nc[n+]2[Pt-2]2([Cl])[NH2+]C3CCCCC3[NH2+]2)c1 (stereo not drawn) [2b, oxaliplatin-erlotinib] the IC50 (H292) was 1.33 ± 0.39 µM, the “A to B transport (apparent permeability)” value (P-gp (MDCKII–P-gp)) was 6.59 × 10^−6 and the “chemical stability in all conditions tested” value ([1]; saline, phosphate buffered solution (pH 4 and 7.4), culture medium with 5 mM glutathione) was “stable”.

With N.N.[Cl][Pt][Cl] [Cisplatin] the IC50 (HEK293 Bcr-Abl wild type) was 8.16 ± 1.01 µM, the IC50 (RPMI8226) was 2.97 ± 0.82 µM and the IC50 (HEK293 Mock transfected) was 5.43 ± 0.72 µM. For the same compound, the IC50 (K562; [2]) was 19.8 ± 1.42 µM, the IC50 (K562; [3]) was 19.8 ± 1.42 µM and the IC50 (K562 Ima1.0) was 17.5 ± 1.06 µM. The IC50 (HCC827) was 6.65 ± 1.66 µM, the IC50 (HEK293 Bcr-Abl E255K) was 6.54 ± 0.49 µM and the “p38 phosphorylation (Western blot)” value (p38) was “induce p38 phosphorylation”. For the same compound, the IC50 (H292) was 2.12 ± 0.87 µM.

COc1cc2c(Nc3ccc(Br)cc3F)[n+]([Pt@SP3-2]([NH2])([NH3+])[Cl])cnc2cc1OCC1CCN(C)CC1 [3c, transplatin-vandetanib] showed an IC50 (H292) of 18.4 ± 4.48 µM.
